Source: patent US20230157292A1, “SEED COATING FORMULA FOR CONTROLLING SOYBEAN SOUTHERN BLIGHT AND SOYBEAN SHEATH BLIGHT” (Institute of Plant Protection and Agro-products Safety, …, priority 2022, published 2023)

Key:
[1] = tested on: Sclerotium rolfsii; assay: Hypha growth inhibition, toxicity determination for Sclerotium rolfsii; assay type: cell-based; conditions: PDA medium, 25° C.
Description: (§1) Fungicidal properties of Thifluzamide and Ipconazole were analyzed in detail.
(§2) Test targets were Rhizoctonia solani and Sclerotium rolfsii, but not limited herein. […] Hypha blocks having a diameter of 5 mm were made on the edges of pre-culture colonies by a sterilized puncher and respectively transferred onto different medium plates for culturing at 25° C. A hypha growth measurement method was adopted in the test to prepare drug-containing media according to different treatments; the hypha blocks having the diameter of 5 mm were made on the edges of pre-culture colonies by the sterilized puncher and respectively transferred onto medium plates having different drug contents; a colony diameter was measured by a crossing method; the colony diameter (mm) was measured; and a growth inhibition ratio was calculated by the following formulas: […]
(§3) The hypha growth inhibition ratio was converted into an inhibition probability value (y); the agent concentration was converted into a concentration logarithm (x); a toxic regression line was drawn by taking the concentration logarithm as a horizontal coordinate and taking the probability value as a vertical coordinate; a toxic regression equation of the single agents such as the Thfiluzamide and Ipconazole and a mixture thereof for pathogenic bacteria was solved; and the EC50 value and a related ratio r were calculated. […]

[2] = tested on: Rhizoctonia solani; assay: Hypha growth inhibition, toxicity determination for Rhizoctonia solani; assay type: cell-based; conditions: PDA medium, 25° C.
Description: as §1, §2, §3

[3] = pH value of 5-9; cited from earlier work
[4] = tested on: rabbit; conditions: cited from earlier work

| SMILES | EC50 ppm [1] | EC50 ppm [2] | stability [3] | acute dermal LD50 [4] |
| --- | --- | --- | --- | --- |
| CC(C)C1CCC(Cc2ccc(Cl)cc2)C1(O)Cn1cncn1 (stereo not drawn) [Ipconazole, (1RS, 2SR, 5RS; 1RS, 2SR, 5 SR)-2-(4-chlorobenzyl)-5-isopropyl-1-(1H-1,2,4-triazole-1-ylmethyl) cyclopentanol] | 0.0327 ppm | 0.0217 ppm |  |  |
| Cc1nc(C(F)(F)F)c(C(=O)Nc2c(Br)cc(OC(F)(F)F)cc2Br)s1 [Thifluzamide, 2′,6′-dibromo-2-methyl-4′-trifluoromethoxy-4-trifluoromethyl-1,3-thiadiazole-5-hydroxyanilide] | 0.1258 ppm | 0.154 ppm | stable | > 2000 mg/kg |
